Assay [1] has as its system hairless guinea pig. Particulars: for blood flow at the application site: LDV 2 minutes after removal. On the procedure: The Guinea pig albumin was used as a model drug or vaccine. The Guinea pig albumen and epinephrine were dry coated on the microprojections of a microprojection array. A microprojection array having long microprojections (600 microns) were chosen in order to maximize bleeding so that the efficacy of the vasoconstrictor could be more easily evaluated.
An aqueous coating solution containing 200 mg/ml of guinea pig albumin and 50 mg/ml of epinephrine bitartrate was prepared. A control solution was prepared which contained only 200 mg/mL guinea pig albumin in water and no vasoconstrictor. The microprojection arrays that were used a penetration angle of 80°. The penetration angle is defined as the angle between the two upper penetration edges of the microprojection. There were 72 microprojections/cm^2 and the overall area of the microprojection array was 2 cm^2.
One group of arrays were dipped into each solution and the excess was wicked off by briefly contacting the microprojection array with tissue. The microprojection arrays were then allowed to air-dry overnight at room temperature.
(§1) The systems that were applied comprised a coated microprojection array which was adhered to the center of a low density polyethylene (LDPE) 7 cm^2 disc, coated with a propriety adhesive. Two systems were applied to each hairless guinea pig.
(§2) At the time of application, the skin of the flank of the animal was manually stretched bilaterally (opposing forces applied on both sides of the expected application site). System application was performed with an impact applicator which applied a force of 0.4 J. Following application of the systems, the stretching tension was released.
(§3) Half of the systems were applied for 5 seconds and then removed. The second half of the systems were applied for 2 minutes and then removed. Therefore there were four test conditions with each condition having been tested with four system.
Pictures of the application skin sites were taken 2 minutes after removal of the system. The skin sites were monitored visually for 30 minutes for blanching. Bleeding was evaluated visually from the pictures by estimating the percentage of the microprojection puncture sites that were bleeding. Blood flow (mL/min/100 g) was evaluated with a laser Doppler Velocimeter (LDV) at the skin site immediately prior to application of the system and 2 minutes following removal of the system. For each guinea pig, the blood flow measurement taken prior to system application was subtracted from the second measurement (normalized blood flow).

Assay [2] concerns hairless guinea pig. The conditions noted are these: skin sites monitored visually for 30 minutes. On the procedure:
as §1, §2, §3
Pictures of the application skin sites were taken 2 minutes after removal of the system. The skin sites were monitored visually for 30 minutes for blanching. Bleeding was evaluated visually from the pictures by estimating the percentage of the microprojection puncture sites that were bleeding. Blood flow (mL/min/100 g) was evaluated with a laser Doppler Velocimeter (LDV) at the skin site immediately prior to application of the system and 2 minutes following removal of the system. […]

Where two headings read alike, the source gives them in different places.

On to `CNC[C@H](O)c1ccc(O)c(O)c1` [epinephrine], for which the “percentage of microslits that were bleeding” value with hairless guinea pig [1] (5-second application, 600 micron microprojection array dry coated with guinea pig albumin 200 mg/ml + epinephrine bitartrate 50 mg/ml, pictures 2 minutes after removal) is listed as 20%; with hairless guinea pig [1] (two-minute application, compared with 5-second application, same coated array) it was “little change in the data”. Further, in the assay on hairless guinea pig [1] (FIG. 5, baseline blood flow subtracted), the “normalized blood flow (erythema at the application site)” value is recorded as “minimizes the erythema”. Also, the “blood flow at the application site” value with hairless guinea pig [1] (systems applied for 5 seconds) and with hairless guinea pig [1] (systems applied for 2 minutes) was 30 mls/min/100 grams throughout. The “time blanching was detectable after removal of the microprojection arrays” value with hairless guinea pig [2] was “about 30 minutes”.

These data come from patent US20040115167A1, “Drug delivery device and method having coated microprojections incorporating vasoconstrictors” (priority 2002, published 2004).
